From PMC9072125 (RSC Advances, 2019)

Test system: LfDAPDH
Conditions: 200 mM NH4Cl, 0.5 mM NADPH, 50 mM Na2CO3/NaHCO3 pH 9.0, 30 °C; reductive amination

SMILES: O=C(O)C(=O)Cc1ccccc1 [PPA]
- Km: 7.61 ± 0.14 mM
